Ten molecules from patent US20230190954A1, “COMPOSITION AND METHODS FOR TREATMENT OF PRIMARY CILIARY DYSKINESIA” (TRANSLATE BIO, INC., priority 2020, published 2023) can be followed below.

In assay [1] the test system is mouse lungs. Kind of assay: In vivo screen of cationic lipids: FFL mRNA-LNP pulmonary delivery, IVIS luciferase imaging. To be noted: for potency as determined by the average radiance detected in mouse lungs: FFL mRNA-LNP, single intratracheal administration, about 5 hours post-dose; for selection based on performance in the in vivo screen: about 150 cationic lipids tested; for suitability/performance in liposomes administered through pulmonary delivery via nebulization: mouse, in vivo. Details: species or system male CD1 mice. The protocol: In this example, various cationic lipids were tested for in vivo efficacy when mRNA encapsulated in lipid nanoparticles (mRNA-LNP) were administered to mice by pulmonary delivery. The cationic lipids were tested for both potency, as determined by levels of protein production, and tolerability, as determined by side effects associated with clearance and metabolism.
About 150 cationic lipids were tested. (FIG. 9). Each cationic lipid was used in preparing lipid nanoparticles encapsulating mRNA encoding firefly luciferase protein (FFL mRNA) according to methods known in the art. For example, suitable methods for mRNA encapsulation include methods described in International Publication Nos. WO2016/004318 and WO 2018/089801, which is hereby incorporated by reference in its entirety. The tested lipid nanoparticles comprised a lipid component consisting of a cationic lipid, a non-cationic lipid (DOPE), a PEG-modified lipid (DMG-PEG2K), and optionally cholesterol.
Lipid nanoparticle formulations comprising FFL mRNA were administered to male CD1 mice by a single intratracheal administration via nebulization using a Microsprayer®. At approximately 5 hours post-dose, the animals were dosed with luciferin by intraperitoneal injection and all animals were imaged using an IVIS imaging system to measure luciferase production in the lung. […] Some cationic lipids remarkably had greater than 50-fold increase in pulmonary protein expression as compared to other cationic lipids.

The test system of assay [2] is mouse lungs. The description is as above. Details: species or system male CD1 mice. To be noted: pulmonary-delivered (e.g., nebulized) FFL mRNA in LNP with this cationic lipid, threshold lines in FIG. 9.

`CCCCC/C=C\C/C=C\CCCCCCCC(=O)OCC(COC(=O)CCCCCCC/C=C\C/C=C\CCCCC)(COC(=O)CCCCCCC/C=C\C/C=C\CCCCC)NCCS(=O)(=O)NCCN(C)C` [GL-TES-SA-DME-E18-2, 2-((2-(N-(2-(dimethylamino)ethyl)sulfamoyl)ethyl)amino)-2-((((9Z,12Z)-octadeca-9,12-dienoyl)oxy)methyl)propane-1,3-diyl (9Z,9′Z,12Z,12′Z)-bis(octadeca-9,12-dienoate)]: in the assay with mouse lungs [1], the “potency as determined by the average radiance detected in mouse lungs” value (“potency as determined” below) is “particularly high potency”, the “selection based on performance in the in vivo screen” value (from here on “selection based on performance”) is “selected for further investigation” and the “suitability/performance in liposomes administered through pulmonary delivery via nebulization” value (“suitability/performance” for short) is listed as “performed particularly well”.

With `CCCCCCCCC(O)CN(CCCCC(=O)OCCN1CC(C)N(CCOC(=O)CCCCN(CC(O)CCCCCCCC)CC(O)CCCCCCCC)CC1C)CC(O)CCCCCCCC` (stereo not shown) [HEP-E4-E10], in the assay on mouse lungs [1], the “potency as determined” value was “particularly high potency”, the “selection based on performance” value is “selected for further investigation” and the “suitability/performance” value is “performed particularly well”.

On to `CCCCC/C=C\C/C=C\CCCCCCCC(=O)OCC(COC(=O)CCCCCCC/C=C\C/C=C\CCCCC)(COC(=O)CCCCCCC/C=C\C/C=C\CCCCC)NCCS(=O)(=O)NCCCN(C)C` [GL-TES-SA-DMP-E18-2], for which, in the assay with mouse lungs [1], the “potency as determined” value is “particularly high potency”, the “selection based on performance” value is listed as “selected for further investigation” and the “suitability/performance” value is “performed particularly well”.

Turning to `CCCCCCCC(=O)OCCCCCCCCCOC(=O)CC(CC(=O)OCCCCCCCCCOC(=O)CCCCCCC)(OC(=O)CCN(C)C)C(=O)OCCCCCCCCCOC(=O)CCCCCCC` [TL1-10D-DMA], in the assay on mouse lungs [1], the “selection based on performance” value is given as “selected for further investigation”.

On to `CC(C)CCCC(C)[C@H]1CCC2C3CC=C4C[C@@H](OC(=O)CCc5c[nH]cn5)CC[C@]4(C)C3CC[C@@]21C` (stereo partly shown) [ICE, imidazole cholesterol ester], for which the “historical radiance/expression of pulmonary-delivered FFL mRNA-LNP” value with mouse lungs [2] was “around 10^4 p/s/cm^2sr”.

Consider `CCCCCCCCOC(=O)CC(CC(=O)OCCCCCCCC)(OC(=O)CCN(C)C)C(=O)OCCCCCCCC` [TL1-01D-DMA, trioctyl 2-((3-(dimethylamino)propanoyl)oxy)propane-1,2,3-tricarboxylate], for which, in the assay with mouse lungs [1], the “potency as determined” value is “particularly high potency”, the “selection based on performance” value is “selected for further investigation” and the “suitability/performance” value is “performed particularly well”.

Turning to `CC(C)CCCC(C)C1CCC2C3CC=C4CC(SSCCNC(=N)N)CCC4(C)C3CCC12C` (stereo not shown) [HGT4002], the “selection based on performance” value with mouse lungs [1] is reported as “selected for further investigation”.

Regarding `CCCCCCCCC(O)CN(CCCC(=O)OCCN1CC(C)N(CCOC(=O)CCCN(CC(O)CCCCCCCC)CC(O)CCCCCCCC)CC1C)CC(O)CCCCCCCC` (stereo not shown) [HEP-E3-E10], in the assay with mouse lungs [1], the “potency as determined” value is given as “particularly high potency”, the “selection based on performance” value is “selected for further investigation” and the “suitability/performance” value was “performed particularly well”.

Take `CCCCCCCCCCCCCCOC(=O)CC(CC(=O)OCCCCCCCCCCCCCC)(OC(=O)CCN(C)C)C(=O)OCCCCCCCCCCCCCC` [TL1-04D-DMA]: in the assay with mouse lungs [1], the “potency as determined” value is reported as “particularly high potency”, the “selection based on performance” value is given as “selected for further investigation” and the “suitability/performance” value is “performed particularly well”.

As to `CCCCCCCCCCCCC(O)CN(CCCC(=O)Oc1c(OC)cc(C(=O)OCCCN(C)C)cc1OC)CC(O)CCCCCCCCCCCC` (stereo not shown) [SY-3-E14-DMAPr], in the assay on mouse lungs [1], the “selection based on performance” value was “selected for further investigation”.
